Laboratory results taken from PMC5145856 (Frontiers in Cellular Neuroscience, 2016).
Values joined by “and” are separate entries in the source; they are usually repeats but may differ in a detail not shown here. Equal values may be shown once. Read-outs that look alike come from different tables or passages of the source.

What was measured:
OR9/ORco = OR9/ORco (Anopheles gambiae, UniProt A0ABK8FPD1+Q7QCC7); type: cell-based
OR53/ORco = OR53/ORco (Anopheles gambiae, UniProt A0ABK8FS74+Q7QCC7); type: cell-based
Chain of OR53/ORco (A0ABK8FS74 entry or part of it, one chain of several): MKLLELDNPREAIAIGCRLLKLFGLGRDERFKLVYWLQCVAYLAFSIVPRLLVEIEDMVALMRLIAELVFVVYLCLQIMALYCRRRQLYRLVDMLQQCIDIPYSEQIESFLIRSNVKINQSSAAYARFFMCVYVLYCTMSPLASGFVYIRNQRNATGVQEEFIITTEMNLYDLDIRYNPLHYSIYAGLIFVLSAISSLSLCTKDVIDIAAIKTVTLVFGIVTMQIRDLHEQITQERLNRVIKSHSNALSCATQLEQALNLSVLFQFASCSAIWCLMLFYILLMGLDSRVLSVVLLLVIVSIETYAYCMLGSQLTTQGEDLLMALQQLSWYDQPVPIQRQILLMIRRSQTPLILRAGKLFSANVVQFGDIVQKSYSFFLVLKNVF

ORco [1] = target: T1, ORco (Anopheles gambiae, UniProt Q7QCC7); experiment: Photina Ca2+ bioluminescence assay in Hi5 cells expressing ORco alone; type: cell-based; details: ORco homomer
T1 construct: expressed in transfected cells; host or cells: Trichoplusia ni BTI-Tn 5B1-4 HighFive (Hi5) cells, transient transfection with pEIA.ORco and pEIA.Photina
T1 sequence (Q7QCC7 1-478): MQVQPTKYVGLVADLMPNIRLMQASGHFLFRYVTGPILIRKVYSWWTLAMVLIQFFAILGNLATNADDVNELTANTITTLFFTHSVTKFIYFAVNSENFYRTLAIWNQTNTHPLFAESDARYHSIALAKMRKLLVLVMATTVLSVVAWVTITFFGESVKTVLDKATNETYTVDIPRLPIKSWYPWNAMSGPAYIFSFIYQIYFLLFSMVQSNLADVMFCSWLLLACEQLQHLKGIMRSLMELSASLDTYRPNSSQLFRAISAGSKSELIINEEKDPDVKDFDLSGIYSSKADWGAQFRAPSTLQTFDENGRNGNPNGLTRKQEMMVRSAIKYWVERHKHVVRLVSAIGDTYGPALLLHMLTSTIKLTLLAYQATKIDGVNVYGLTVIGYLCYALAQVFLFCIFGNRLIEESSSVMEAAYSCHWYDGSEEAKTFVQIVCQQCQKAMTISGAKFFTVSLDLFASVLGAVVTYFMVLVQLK

OR2/ORco [2] = target: T2, OR2/ORco (Anopheles gambiae, UniProt Q7QCC7+Q8WTE6); experiment: Photina Ca2+ bioluminescence assay in Hi5 cells expressing OR2/ORco; type: cell-based; details: for EC50: OR2+ORco, agonist alone
T2 construct: expressed in transfected cells; host or cells: Trichoplusia ni BTI-Tn 5B1-4 HighFive (Hi5) cells, transient transfection with pEIA plasmids
T2 sequence (Q8WTE6 1-378): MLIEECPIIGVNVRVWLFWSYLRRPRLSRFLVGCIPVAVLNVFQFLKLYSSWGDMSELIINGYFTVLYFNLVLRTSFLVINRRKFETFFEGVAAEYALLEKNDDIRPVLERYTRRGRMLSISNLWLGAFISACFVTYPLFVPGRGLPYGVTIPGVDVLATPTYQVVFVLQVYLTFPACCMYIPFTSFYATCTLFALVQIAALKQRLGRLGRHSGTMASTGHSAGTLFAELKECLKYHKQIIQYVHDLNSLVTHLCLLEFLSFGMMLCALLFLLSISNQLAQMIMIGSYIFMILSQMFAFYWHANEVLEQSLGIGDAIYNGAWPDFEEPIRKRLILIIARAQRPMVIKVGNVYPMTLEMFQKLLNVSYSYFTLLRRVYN
T2 sequence (Q7QCC7 1-478): T1 sequence (Q7QCC7 1-478)

OR1/ORco [3] = target: T3, OR1/ORco (Anopheles gambiae, UniProt Q7QCC7+Q8WTE7); experiment: Photina Ca2+ bioluminescence assay in Hi5 cells expressing OR1/ORco; type: cell-based; details: for EC50: OR1+ORco, agonist alone
T3 construct: expressed in transfected cells; host or cells: Trichoplusia ni BTI-Tn 5B1-4 HighFive (Hi5) cells, transient transfection with pEIA plasmids
T3 sequence (Q8WTE7 1-417): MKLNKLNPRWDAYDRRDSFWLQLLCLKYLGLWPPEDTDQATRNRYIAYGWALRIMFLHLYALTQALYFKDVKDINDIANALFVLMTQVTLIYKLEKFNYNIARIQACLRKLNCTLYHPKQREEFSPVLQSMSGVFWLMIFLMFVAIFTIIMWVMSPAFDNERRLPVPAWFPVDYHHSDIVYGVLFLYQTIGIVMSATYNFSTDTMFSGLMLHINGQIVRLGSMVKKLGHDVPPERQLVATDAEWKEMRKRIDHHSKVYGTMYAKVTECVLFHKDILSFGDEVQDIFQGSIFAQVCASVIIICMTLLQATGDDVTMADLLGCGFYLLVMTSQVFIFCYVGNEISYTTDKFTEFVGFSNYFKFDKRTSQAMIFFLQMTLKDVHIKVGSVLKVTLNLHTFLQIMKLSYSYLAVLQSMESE
T3 sequence (Q7QCC7 1-478): T1 sequence (Q7QCC7 1-478)

ORco [4] = target: T1, ORco; set-up: method as in Tsitoura et al., 2015; details: ORco homomer; ref Tsitoura et al., 2015; cited from earlier work
OR1/ORco [5] = target: T3, OR1/ORco; set-up: method as in Tsitoura et al., 2015; details: agonist alone, ref Tsitoura et al., 2015; cited from earlier work
OR2/ORco [6] = target: T2, OR2/ORco; set-up: method as in Tsitoura et al., 2015; details: agonist alone, ref Tsitoura et al., 2015; cited from earlier work
[7] = from the fitted dose-response curve, odorant alone

Chain of OR9/ORco (A0ABK8FPD1 entry or part of it, one chain of several): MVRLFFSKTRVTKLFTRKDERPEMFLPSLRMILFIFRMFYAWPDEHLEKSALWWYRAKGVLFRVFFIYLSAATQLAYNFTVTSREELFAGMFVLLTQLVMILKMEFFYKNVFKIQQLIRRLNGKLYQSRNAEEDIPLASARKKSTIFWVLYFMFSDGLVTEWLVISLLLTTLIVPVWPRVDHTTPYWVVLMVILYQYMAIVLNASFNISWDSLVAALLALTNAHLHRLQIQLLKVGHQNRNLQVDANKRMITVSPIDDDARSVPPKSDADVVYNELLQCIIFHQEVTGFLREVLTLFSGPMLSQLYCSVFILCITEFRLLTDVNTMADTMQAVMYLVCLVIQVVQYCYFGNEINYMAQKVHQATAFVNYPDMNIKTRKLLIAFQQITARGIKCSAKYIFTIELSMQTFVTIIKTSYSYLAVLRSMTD

## CCc1ccc(NC(=O)CSc2nnc(-c3ccncc3)n2CC)cc1 [OA, N-(4-ethylphenyl)-2-((4-ethyl-5-(4-pyridinyl)-4H-1,2,4-triazol-3-yl)thio)acetamide]
OR9/ORco
  Potentiation magnitude at EC20 of odorant: ~ 10 fold
  Relative efficacy# (relative to 100 µM ORx-specific odorant): 10.4 fold
  Relative efficacy* (relative to ORco): 1,05 fold
  Relative efficacy§ (potentiation relative to 100 µM ORx-specific odorant): 4.94 fold
  Relative efficacy§ (relative to 100 µM ORx-specific odorant): 0.05 fold
OR9/ORco; read-out: EC50
  EC50: 79 µM and 78.7 µM
OR53/ORco
  Relative efficacy* (relative to ORco): 3.87 fold
  Relative efficacy§ (potentiation relative to 100 µM ORx-specific odorant): 140.85 fold and 140 fold and 141 fold
  Relative efficacy§ (relative to 100 µM ORx-specific odorant): 16.3 fold
OR53/ORco; read-out: EC50
  EC50: 57 µM and 56.6 µM
ORco [1]
  EC50: 97 µM and 96.6 µM
ORco [1]; listed as OrcoRAM2
  EC50: 100 µM
OR2/ORco [2]
  Potentiation magnitude at EC20 of odorant: ~ 53 fold
  EC50: 44 µM and 43.6 µM
OR2/ORco [2]; 10 µM ORcoRAM2 alone vs 100 µM IN, Figure 3A
  Relative efficacy§ (relative to 100 µM ORx-specific odorant): 0.57 fold
OR2/ORco [2]; 10 µM ORcoRAM2 together with 100 µM IN vs 100 µM IN alone, Figure 3A
  Relative efficacy§ (potentiation relative to 100 µM ORx-specific odorant): 8.09 fold
OR2/ORco [2]; 100 µM ORcoRAM2, no odorant, OR2/ORco vs ORco homomer, Figure 1A
  Relative efficacy* (relative to ORco): 3.2 fold
OR2/ORco [2]; 100 µM ORcoRAM2 alone vs 100 µM IN, Figure 1C
  Relative efficacy# (relative to 100 µM ORx-specific odorant): 6.22 fold
OR1/ORco [3]; 10 µM OA (ORcoRAM2), 4MP at EC20 (427nM)
  Potentiation magnitude at EC20 of odorant: ~ 93 fold
OR1/ORco [3]; 10 µM ORcoRAM2 alone vs 100 µM 4MP, Figure 3A
  Relative efficacy§ (relative to 100 µM ORx-specific odorant): 2.88 fold
OR1/ORco [3]; 10 µM ORcoRAM2 together with 100 µM 4MP vs 100 µM 4MP alone, Figure 3A
  Relative efficacy§ (potentiation relative to 100 µM ORx-specific odorant): 32.45 fold
OR1/ORco [3]; 100 µM ORcoRAM2 alone vs 100 µM 4MP, Figure 1C
  Relative efficacy# (relative to 100 µM ORx-specific odorant): 10,22 fold
OR1/ORco [3]
  EC50: 57 µM and 56.6 µM
ORco [4]
  EC50: 59 µM and 58.9 µM

## Cc1ccc(O)cc1 [4MP, 4-Methylphenol]
OR1/ORco [5]
  EC50: 2.8 µM
OR1/ORco [3]
  EC50: 1.2 µM
OR1/ORco [3]; [7]
  Concentration of the odorant at EC20: 0.427 µM

## C=CC(C)(O)CCC=C(C)C (stereo not shown) [LIN, Linalool]
OR53/ORco
  Concentration of the odorant at EC20: 105 µM
  Functional response of receptor to odorant: clear responses
OR53/ORco; OR53+ORco, agonist alone
  EC50: 181 µM
  pEC50 ± SE: 3.742 ± 0.04453
OR53/ORco; OR53+ORco, agonist alone, listed as linalool
  EC50: ~180 µM

## CCc1ccccc1O [2EP, 2-Ethylphenol]
OR9/ORco
  Concentration of the odorant at EC20: 35 µM
  Functional response of receptor to odorant: responded
OR9/ORco; OR9+ORco, agonist alone
  EC50: 77.6 µM
  pEC50 ± SE: 4.110 ± 0.009062
OR9/ORco; OR9+ORco, agonist alone, listed as 2-ethylphenol
  EC50: ~78 µM

## c1ccc2[nH]ccc2c1 [IN, Indole]
OR2/ORco [2]
  EC50: 5.5 µM
OR2/ORco [2]; [7]
  Concentration of the odorant at EC20: 3.3 µM
OR2/ORco [6]
  EC50: 3.4 µM
